The values that follow come from ChEMBL document CHEMBL5550160, “Leveraging a rationally designed veliparib-based anilide eliciting anti-leukemic effects for the design of pH-responsive polymer nanoformulation” (Eur J Med Chem, 2024).

For orientation: IC50 means the point on the concentration scale where inhibition reaches its midpoint. Read a high IC50 as weaker potency in that assay.

Each structure is given as a SMILES string.

In one experiment the target is Histone deacetylase 3 (Homo sapiens, UniProt O15379). In words: Inhibition of HDAC3 (unknown origin) using p53 residues 379 to 382 [RHKK(Ac)] as fluorogenic substrate.
Experiment [1] concerns the target Histone deacetylase 5 (Homo sapiens) (UniProt Q9UQL6). In words: Inhibition of HDAC5 (unknown origin) assessed as residual activity at 4.12 x 10^-8M (reference value: 100%). The following applies: dose 4.12 10^-8M.
Experiment [2] concerns the target T1, Histone deacetylase 8 (Homo sapiens) (UniProt Q9BY41).
T1 sequence (whole entry): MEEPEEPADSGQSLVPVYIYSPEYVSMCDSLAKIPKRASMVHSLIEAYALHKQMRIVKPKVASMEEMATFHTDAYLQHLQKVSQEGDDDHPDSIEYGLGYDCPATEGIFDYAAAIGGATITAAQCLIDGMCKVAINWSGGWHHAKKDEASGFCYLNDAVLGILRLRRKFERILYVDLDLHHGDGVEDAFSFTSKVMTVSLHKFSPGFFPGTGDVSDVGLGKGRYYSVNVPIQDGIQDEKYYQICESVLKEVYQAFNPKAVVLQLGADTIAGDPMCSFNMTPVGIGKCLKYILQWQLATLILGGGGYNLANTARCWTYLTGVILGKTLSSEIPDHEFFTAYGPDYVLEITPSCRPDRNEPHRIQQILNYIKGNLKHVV
In words: Inhibition of HDAC8 (unknown origin) assessed as residual activity at 1.23 x 10^-7M (reference value: 100%). As to conditions: dose 1.23 10^-7M.

The target of experiment [3] is T2, Histone deacetylase 7 (Homo sapiens) (UniProt Q8WUI4).
T2 sequence (whole entry): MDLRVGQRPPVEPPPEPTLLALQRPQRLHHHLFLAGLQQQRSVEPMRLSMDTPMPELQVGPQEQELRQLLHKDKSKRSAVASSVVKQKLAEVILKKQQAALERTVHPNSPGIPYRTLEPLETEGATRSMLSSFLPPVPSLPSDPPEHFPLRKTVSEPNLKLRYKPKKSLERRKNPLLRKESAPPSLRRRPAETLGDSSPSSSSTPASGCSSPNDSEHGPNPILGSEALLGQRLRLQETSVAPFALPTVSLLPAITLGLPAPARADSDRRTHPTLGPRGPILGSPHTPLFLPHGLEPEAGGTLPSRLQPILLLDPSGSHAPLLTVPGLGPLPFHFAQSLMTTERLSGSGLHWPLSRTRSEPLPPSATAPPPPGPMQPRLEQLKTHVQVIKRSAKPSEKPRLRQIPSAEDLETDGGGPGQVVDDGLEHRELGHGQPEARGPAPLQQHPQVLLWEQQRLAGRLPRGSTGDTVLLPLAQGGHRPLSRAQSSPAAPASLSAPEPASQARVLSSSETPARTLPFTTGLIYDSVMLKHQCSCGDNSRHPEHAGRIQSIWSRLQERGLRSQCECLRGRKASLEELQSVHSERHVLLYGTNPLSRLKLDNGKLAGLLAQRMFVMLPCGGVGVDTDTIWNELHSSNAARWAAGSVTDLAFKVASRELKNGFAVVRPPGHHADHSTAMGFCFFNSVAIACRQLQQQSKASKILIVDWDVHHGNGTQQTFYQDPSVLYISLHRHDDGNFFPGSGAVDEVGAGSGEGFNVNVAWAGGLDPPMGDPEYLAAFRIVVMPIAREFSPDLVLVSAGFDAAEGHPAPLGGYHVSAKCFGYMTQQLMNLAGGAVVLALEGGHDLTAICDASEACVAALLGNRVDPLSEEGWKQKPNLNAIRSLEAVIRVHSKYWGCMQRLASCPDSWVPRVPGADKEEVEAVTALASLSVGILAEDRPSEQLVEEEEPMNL
In words: Inhibition of HDAC7 (unknown origin) assessed as residual activity at 4.57 x 10^-9M (reference value: 102.66%). The following applies: dose 4.57 10^-9M.

The target of experiment [4] is T1, Histone deacetylase 8 (Homo sapiens). In words: Inhibition of HDAC8 (unknown origin) assessed as residual activity at 4.57 x 10^-9M (reference value: 100%). As to conditions: dose 4.57 10^-9M.
The target in experiment [5] is T3, Protein deacetylase HDAC6 (Homo sapiens) (UniProt Q9UBN7).
T3 sequence (whole entry): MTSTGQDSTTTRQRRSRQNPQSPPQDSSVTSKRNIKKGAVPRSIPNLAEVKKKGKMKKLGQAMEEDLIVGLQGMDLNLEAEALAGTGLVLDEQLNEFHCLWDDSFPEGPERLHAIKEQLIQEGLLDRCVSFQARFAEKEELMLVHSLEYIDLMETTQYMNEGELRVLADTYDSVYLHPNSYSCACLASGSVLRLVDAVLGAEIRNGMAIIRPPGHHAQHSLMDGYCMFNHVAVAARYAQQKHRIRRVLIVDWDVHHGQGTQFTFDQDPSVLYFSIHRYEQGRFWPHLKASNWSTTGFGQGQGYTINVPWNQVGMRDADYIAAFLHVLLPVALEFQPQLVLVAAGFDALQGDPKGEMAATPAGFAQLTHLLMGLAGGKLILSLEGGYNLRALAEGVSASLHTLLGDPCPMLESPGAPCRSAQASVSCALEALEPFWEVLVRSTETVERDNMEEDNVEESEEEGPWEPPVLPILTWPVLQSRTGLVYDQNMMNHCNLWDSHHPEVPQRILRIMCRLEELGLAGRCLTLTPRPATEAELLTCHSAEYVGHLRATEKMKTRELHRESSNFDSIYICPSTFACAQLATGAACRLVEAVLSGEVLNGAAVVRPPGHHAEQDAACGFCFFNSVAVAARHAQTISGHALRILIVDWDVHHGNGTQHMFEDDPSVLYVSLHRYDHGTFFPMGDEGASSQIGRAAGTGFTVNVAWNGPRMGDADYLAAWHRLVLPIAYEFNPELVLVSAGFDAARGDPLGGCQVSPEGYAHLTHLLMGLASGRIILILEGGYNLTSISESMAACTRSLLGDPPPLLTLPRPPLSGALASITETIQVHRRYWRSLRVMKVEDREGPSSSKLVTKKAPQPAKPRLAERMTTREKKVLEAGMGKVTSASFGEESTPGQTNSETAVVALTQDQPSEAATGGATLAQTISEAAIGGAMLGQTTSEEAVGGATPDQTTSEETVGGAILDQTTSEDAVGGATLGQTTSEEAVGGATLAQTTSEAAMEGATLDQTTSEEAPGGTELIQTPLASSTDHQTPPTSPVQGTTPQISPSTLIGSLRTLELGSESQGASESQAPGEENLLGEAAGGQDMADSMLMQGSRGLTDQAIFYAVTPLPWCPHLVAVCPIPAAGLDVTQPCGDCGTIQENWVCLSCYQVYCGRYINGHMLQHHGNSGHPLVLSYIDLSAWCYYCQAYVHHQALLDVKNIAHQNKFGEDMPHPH
In words: Inhibition of HDAC6 (unknown origin) using p53 residues 379 to 382 [RHKK(Ac)] as fluorogenic substrate assessed as residual activity at 1.52 x 10^-9M (reference value: 101.06%). As to conditions: dose 1.52 10^-9M.

Another experiment addresses Histone deacetylase 2 (Homo sapiens, UniProt Q92769). In words: Inhibition of HDAC2 (unknown origin) assessed as residual activity at 1 x 10^-5M (reference value: 99.81%). The following applies: dose 1.0 10^-5M.

Sequence of Histone deacetylase 2 (Q92769 whole entry): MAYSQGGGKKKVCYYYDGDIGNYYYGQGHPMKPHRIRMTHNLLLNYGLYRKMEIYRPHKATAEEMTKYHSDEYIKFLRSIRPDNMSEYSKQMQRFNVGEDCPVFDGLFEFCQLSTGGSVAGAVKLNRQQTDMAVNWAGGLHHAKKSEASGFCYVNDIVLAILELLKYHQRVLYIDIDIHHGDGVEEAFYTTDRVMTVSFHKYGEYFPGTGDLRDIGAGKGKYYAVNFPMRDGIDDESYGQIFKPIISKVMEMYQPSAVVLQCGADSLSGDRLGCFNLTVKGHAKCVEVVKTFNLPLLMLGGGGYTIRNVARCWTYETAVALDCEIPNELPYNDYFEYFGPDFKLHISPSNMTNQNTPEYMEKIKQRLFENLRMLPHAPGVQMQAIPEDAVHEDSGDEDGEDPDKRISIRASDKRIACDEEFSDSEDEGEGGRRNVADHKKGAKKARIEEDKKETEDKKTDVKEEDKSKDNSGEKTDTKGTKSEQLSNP
Sequence of Histone deacetylase 3 (O15379 whole entry, the tested form may be a part): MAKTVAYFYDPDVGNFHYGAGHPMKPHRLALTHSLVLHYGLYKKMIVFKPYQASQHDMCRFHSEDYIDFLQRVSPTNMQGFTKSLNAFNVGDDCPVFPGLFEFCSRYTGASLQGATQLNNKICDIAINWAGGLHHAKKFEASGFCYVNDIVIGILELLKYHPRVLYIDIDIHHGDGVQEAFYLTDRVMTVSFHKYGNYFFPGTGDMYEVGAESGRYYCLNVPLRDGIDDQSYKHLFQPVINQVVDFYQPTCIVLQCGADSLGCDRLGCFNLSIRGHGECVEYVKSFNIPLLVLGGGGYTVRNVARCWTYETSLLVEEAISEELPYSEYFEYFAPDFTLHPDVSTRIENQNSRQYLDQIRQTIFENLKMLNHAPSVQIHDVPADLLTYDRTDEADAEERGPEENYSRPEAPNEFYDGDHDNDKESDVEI
Sequence of Histone deacetylase 5 (Homo sapiens) (Q9UQL6 whole entry): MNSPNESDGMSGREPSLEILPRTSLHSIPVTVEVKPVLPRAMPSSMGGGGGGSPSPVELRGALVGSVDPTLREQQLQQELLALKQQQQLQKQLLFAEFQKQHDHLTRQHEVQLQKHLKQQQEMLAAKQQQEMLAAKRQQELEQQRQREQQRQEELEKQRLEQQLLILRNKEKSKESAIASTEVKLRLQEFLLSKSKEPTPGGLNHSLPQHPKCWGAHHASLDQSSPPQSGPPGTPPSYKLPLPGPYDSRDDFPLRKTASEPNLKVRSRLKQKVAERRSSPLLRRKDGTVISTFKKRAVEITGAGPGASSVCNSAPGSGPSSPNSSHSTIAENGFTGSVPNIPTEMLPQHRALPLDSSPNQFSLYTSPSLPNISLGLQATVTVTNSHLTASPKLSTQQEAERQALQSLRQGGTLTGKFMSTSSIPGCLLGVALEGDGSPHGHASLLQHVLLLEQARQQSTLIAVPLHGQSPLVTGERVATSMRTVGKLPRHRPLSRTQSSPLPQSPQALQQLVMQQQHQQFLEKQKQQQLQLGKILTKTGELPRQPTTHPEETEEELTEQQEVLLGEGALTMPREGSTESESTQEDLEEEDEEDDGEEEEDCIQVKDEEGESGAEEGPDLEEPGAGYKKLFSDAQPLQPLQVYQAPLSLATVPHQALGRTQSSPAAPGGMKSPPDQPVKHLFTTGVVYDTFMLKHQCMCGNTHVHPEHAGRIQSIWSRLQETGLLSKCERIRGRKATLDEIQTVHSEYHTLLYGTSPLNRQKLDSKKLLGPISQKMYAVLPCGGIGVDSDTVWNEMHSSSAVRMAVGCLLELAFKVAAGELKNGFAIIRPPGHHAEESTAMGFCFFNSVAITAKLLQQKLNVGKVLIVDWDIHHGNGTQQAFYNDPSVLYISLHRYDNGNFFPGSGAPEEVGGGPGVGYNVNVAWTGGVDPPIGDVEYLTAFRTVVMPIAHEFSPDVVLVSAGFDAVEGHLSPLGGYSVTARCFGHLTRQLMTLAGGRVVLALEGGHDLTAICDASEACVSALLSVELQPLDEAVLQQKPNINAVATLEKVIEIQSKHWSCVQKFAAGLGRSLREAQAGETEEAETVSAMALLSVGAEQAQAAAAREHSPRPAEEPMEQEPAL

For `NC(=O)c1cccc2[nH]c(-c3ccc(NCc4ccc(C(=O)Nc5ccccc5N)cc4)cc3)nc12`, the IC50 against Histone deacetylase 3 was 393 nM. Also, the Activity stood at 93.1% in experiment [1]; 104% in experiment [2]; 111% in experiment [3]; 103% in experiment [4]; 96.7% in experiment [5]; 7.52% on Histone deacetylase 2.
